We go through 22 molecules from patent US12509424B2, “Compound and composition as PDGF receptor kinase inhibitor” (NIPPON SHINYAKU CO., LTD., priority 2019, dated 2025).

In one assay the target is PDGFR-β (Homo sapiens (Human), UniProt P09619). Put plainly: PDGFR-β tyrosine kinase inhibitory action (HTRF KinEASE-TK). It counts as biochemical. The following applies: PDGFR-β enzyme 1 ng/μL, 30° C. for 30 minutes; read-out: PDGF-β IC50. The method, boiled down: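 Recombinant PDGFR-β at 1 ng/μL final with TK substrate-3-biotin in a substrate solution containing 0.6 μM ATP; buffer 50 mM HEPES pH 7.0, 5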

The target in assay [1] is TEL-PDGFRβ fusion gene transfected cells (Ba/F3). Put plainly: Suppression of proliferation of TEL-PDGFRβ fusion gene transfected Ba/F3 cells. The following applies: TEL-PDGFRβ expressing Ba/F3 cells, 72 hours, final concentration 0.1 to 10,000 nM; read-out: PDGFR β/BaF3 proliferation inhibition (IC50). Type of assay: cell-based, human. The text has this:
2. Preparation of Test Substance
4. Analysis of Measurement Results

Assay [2] deals with TEL-KIT fusion gene transfected cells (Ba/F3). As to the kind of experiment: Suppression of proliferation of TEL-KIT fusion gene transfected Ba/F3 cells.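 Further: viable cells quantified via formazan from tetrazolium reduction, inhibition scaled with 0.1% DMSO control as 0% and medium-only blank as 100%, IC50 from two-parameter logistic fit.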 The following applies: read-out: KIT/BaF3 proliferation inhibition (IC50); TEL-KIT expressing Ba/F3 cells, 72 hours, final concentration 0.1 to 10,000 nM.
Assay [3] has as its system pulmonary arterial smooth muscle cells. As to the kind of experiment: Suppression of proliferation of pulmonary arterial smooth muscle cells (PDGF-BB stimulation, BrdU). Type of assay: cell-based. The following applies: PASMC, 24 h; healthy human derived pulmonary arterial smooth muscle cells; human PDGF-BB 10 ng/mL stimulation; BrdU uptake after 1 day; test substance final concentration 3 to 10,000 nM; read-out: Human normal PASMC proliferation suppression (PDGF stimulation_IC50). The method, boiled down:
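Test compound (final 3 to 10,000 nM) was added together with BrdU and PDGF-BB (final 10 ng/mL) to healthy human pulmonary artery smooth muscle cells held a day in 0.1% FBS. Proliferation was read after 1 day as anti-BrdU-detected BrdU incorporation.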

Sequence of PDGFR-β (P09619 33-1106): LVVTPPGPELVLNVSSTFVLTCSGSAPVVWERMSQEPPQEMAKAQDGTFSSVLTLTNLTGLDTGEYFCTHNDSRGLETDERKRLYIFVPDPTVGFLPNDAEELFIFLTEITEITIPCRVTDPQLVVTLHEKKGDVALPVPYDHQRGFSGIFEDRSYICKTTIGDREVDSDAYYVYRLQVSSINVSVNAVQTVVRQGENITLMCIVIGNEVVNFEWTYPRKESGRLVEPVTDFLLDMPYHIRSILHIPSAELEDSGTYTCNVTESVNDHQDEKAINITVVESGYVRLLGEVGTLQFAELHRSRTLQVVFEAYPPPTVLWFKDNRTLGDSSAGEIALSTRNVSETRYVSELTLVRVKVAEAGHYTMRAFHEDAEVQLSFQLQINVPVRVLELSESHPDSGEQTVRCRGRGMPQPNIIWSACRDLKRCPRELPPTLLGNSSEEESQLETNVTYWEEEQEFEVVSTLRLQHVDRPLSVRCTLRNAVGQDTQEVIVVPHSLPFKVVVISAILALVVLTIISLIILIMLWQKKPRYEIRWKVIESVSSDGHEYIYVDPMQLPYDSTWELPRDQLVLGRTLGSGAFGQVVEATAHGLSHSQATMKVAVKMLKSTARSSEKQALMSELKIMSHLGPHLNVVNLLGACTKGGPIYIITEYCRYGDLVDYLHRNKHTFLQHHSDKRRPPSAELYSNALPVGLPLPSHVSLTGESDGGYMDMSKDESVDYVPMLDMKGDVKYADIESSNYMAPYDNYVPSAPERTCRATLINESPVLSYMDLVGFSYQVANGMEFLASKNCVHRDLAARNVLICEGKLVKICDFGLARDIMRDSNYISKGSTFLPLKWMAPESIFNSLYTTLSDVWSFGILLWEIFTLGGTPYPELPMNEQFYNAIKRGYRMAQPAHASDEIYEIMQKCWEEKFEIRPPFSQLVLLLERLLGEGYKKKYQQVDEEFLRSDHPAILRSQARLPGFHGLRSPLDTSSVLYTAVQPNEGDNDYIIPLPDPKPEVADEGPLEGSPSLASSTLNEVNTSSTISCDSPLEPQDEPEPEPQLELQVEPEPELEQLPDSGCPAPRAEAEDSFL
Sequence of TEL-PDGFRβ fusion gene transfected cells (Ba/F3) (P09619 33-1106 limits assumed, change not shown): as the sequence (P09619 33-1106) above
Sequence of TEL-KIT fusion gene transfected cells (Ba/F3) (P10721 26-976 limits assumed, change not shown): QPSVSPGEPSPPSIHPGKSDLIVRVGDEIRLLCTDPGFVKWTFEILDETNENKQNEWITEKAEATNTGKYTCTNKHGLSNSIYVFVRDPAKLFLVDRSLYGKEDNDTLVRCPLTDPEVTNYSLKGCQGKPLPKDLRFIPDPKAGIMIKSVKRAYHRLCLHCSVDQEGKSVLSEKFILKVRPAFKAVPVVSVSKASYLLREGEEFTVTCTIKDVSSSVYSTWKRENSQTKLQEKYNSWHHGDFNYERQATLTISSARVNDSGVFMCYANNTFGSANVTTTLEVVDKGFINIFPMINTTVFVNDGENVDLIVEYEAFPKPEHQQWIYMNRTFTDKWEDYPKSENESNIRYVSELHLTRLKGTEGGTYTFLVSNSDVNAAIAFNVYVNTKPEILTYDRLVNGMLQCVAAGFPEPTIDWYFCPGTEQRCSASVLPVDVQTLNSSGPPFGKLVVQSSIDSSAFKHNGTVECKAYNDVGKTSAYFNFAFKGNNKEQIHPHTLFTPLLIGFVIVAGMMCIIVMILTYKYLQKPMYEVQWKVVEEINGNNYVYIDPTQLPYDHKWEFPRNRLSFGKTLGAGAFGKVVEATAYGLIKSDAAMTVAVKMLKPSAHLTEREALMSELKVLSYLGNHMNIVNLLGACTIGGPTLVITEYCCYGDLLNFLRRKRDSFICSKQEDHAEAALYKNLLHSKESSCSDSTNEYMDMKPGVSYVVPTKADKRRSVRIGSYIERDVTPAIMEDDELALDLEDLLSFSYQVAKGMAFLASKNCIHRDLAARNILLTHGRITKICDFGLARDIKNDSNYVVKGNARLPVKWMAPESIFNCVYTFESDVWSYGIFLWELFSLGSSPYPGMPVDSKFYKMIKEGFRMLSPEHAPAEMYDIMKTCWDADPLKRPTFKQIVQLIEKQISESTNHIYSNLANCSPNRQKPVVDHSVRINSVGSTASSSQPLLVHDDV

Regarding `Cc1c(F)cc(C(=O)N[C@H]2CCCC[C@@H]2O)cc1NCc1cncc(-c2ncccn2)c1` [Example 106, 3-fluoro-N-[(1S,2S)-2-hydroxycyclohexyl]-4-methyl-5-({[5-(pyrimidin-2-yl)pyridin-3-yl]methyl}amino)benzamide], the IC50 stood at 67 nM on PDGFR-β, 2.1 nM in assay [1], 1300 nM in assay [2] and 140 nM in assay [3].
The like results for `Cc1ccc(C(=O)N[C@H]2CCCC[C@@H]2O)cc1NCc1cncc(-c2ncc(F)cn2)c1` [Example 107, 3-({[5-(5-fluoropyrimidin-2-yl)pyridin-3-yl]methyl}amino)-N-[(1S,2S)-2-hydroxycyclohexyl]-4-methylbenzamide] were, in that order, 190 nM, 19 nM, 1200 nM and 110 nM.
For `Cc1ccc(C(=O)N[C@H]2CCCC[C@@H]2O)cc1NCc1cnc2ccsc2c1` [Example 108, N-[(1S,2S)-2-hydroxycyclohexyl]-4-methyl-3-{[(thieno[3,2-b]pyridin-6-yl)methyl]amino}benzamide], the IC50 on PDGFR-β was 51 nM; in assay [1] it was 2.3 nM; in assay [2] it was 300 nM; in assay [3], 85 nM.
For `Cc1ccc(C(=O)N[C@H]2CCCC[C@@H]2O)cc1NCc1cnn(-c2ccccn2)c1` [Example 112, N-[(1S,2S)-2-hydroxycyclohexyl]-4-methyl-3-({[1-(pyridin-2-yl)-1H-pyrazol-4-yl]methyl}amino)benzamide] the same measures were 39 nM, 1.3 nM, 250 nM and 26 nM.
The like results for `Cc1ccc(C(=O)N[C@H]2CCCC[C@@H]2O)cc1NCc1cnc(N)nc1` [Example 113, 3-{[(2-aminopyrimidin-5-yl)methyl]amino}-N-[(1S,2S)-2-hydroxycyclohexyl]-4-methylbenzamide] were, in that order, 83 nM, 0.2 nM, 700 nM and 51 nM.
For `Cc1ccc(C(=O)N[C@H]2CCCC[C@@H]2O)cc1NCc1cnc(NC2CC2)nc1` [Example 114, 3-({[2-(cyclopropylamino)pyrimidin-5-yl]methyl}amino)-N-[(1S,2S)-2-hydroxycyclohexyl]-4-methylbenzamide] the same measures were 270 nM, 2.7 nM, 960 nM and 190 nM.
Regarding `Cc1ccc(C(=O)N[C@H]2CCCC[C@@H]2O)cc1NCc1cncc(-c2cnccn2)c1` [Example 115, N-[(1S,2S)-2-hydroxycyclohexyl]-4-methyl-3-({[5-(pyrazin-2-yl)pyridin-3-yl]methyl}amino)benzamide], the IC50 at PDGFR-β was found to be 260 nM; in assay [1] it was 1.4 nM; in assay [2], 1700 nM; in assay [3], 290 nM.
For `Cc1ccc(C(=O)N[C@H]2CCCC[C@@H]2O)cc1CNc1cncc(-c2cccnc2)c1` [Example 146, 3-{[([3,3′-bipyridin]-5-yl)amino]methyl}-N-[(1S,2S)-2-hydroxycyclohexyl]-4-methylbenzamide], the IC50 at PDGFR-β amounted to 210 nM; in assay [1], 22 nM; in assay [2], 730 nM; in assay [3], 44 nM.
Consider `Cc1ccc(C(=O)N[C@H]2CCCC[C@@H]2O)cc1CNc1cncc(-c2ncccn2)c1` [Example 147, N-[(1S,2S)-2-hydroxycyclohexyl]-4-methyl-3-({[5-(pyrimidin-2-yl)pyridin-3-yl]amino}methyl)benzamide], for which the IC50 on PDGFR-β came to 24 nM; in assay [1] it was 5.6 nM; in assay [2] it was 100 nM; in assay [3], 52 nM.
On to `Cc1ccc(C(=O)N[C@H]2CCCC[C@@H]2O)cc1CNc1cncc(-c2ccccn2)c1` [Example 148, 3-{[([2,3′-bipyridin]-5′-yl)amino]methyl}-N-[(1S,2S)-2-hydroxycyclohexyl]-4-methylbenzamide], for which the IC50 at PDGFR-β was determined as 16 nM; in assay [1] it was 2.4 nM; in assay [2] it was 170 nM; in assay [3] it was 110 nM.
Turning to `Cc1ccc(C(=O)N[C@@H]2CCCC[C@H]2O)cc1CNc1cncc(-c2ncccn2)c1` [Example 149, N-[(1R,2R)-2-hydroxycyclohexyl]-4-methyl-3-({[5-(pyrimidin-2-yl)pyridin-3-yl]amino}methyl)benzamide], the IC50 on PDGFR-β is 220 nM; in assay [1] it was 58 nM; in assay [2] it was 670 nM; in assay [3], 150 nM.
With `Cc1ccc(C(=O)N[C@@H](CO)[C@@H](O)c2ccccc2)cc1CNc1cncc(Br)c1` [Example 152, 3-{[(5-bromopyridin-3-yl)amino]methyl}-N-[(1S,2S)-1,3-dihydroxy-1-phenylpropan-2-yl]-4-methylbenzamide], the IC50 on PDGFR-β is 50 nM; in assay [1], 100 nM; in assay [2] it was over 10000 nM; in assay [3] it was 82 nM.
Regarding `Cc1ccc(C(=O)N[C@@H](CO)[C@@H](O)c2ccccc2)cc1CNc1cncc(-c2ccccc2)c1` [Example 153, N-[(1S,2S)-1,3-dihydroxy-1-phenylpropan-2-yl]-4-methyl-3-{[(5-phenylpyridin-3-yl)amino]methyl}benzamide], the IC50 at PDGFR-β came to 88 nM; in assay [1], 27 nM; in assay [2] it was 7000 nM; in assay [3], 62 nM.
For `Cc1ccc(C(=O)N[C@@H](CO)[C@@H](O)c2ccccc2)cc1CNc1cncc(C2CC2)c1` [Example 154, 3-{[(5-cyclopropylpyridin-3-yl)amino]methyl}-N-[(1S,2S)-1,3-dihydroxy-1-phenylpropan-2-yl]-4-methylbenzamide] the same measures were 340 nM, 230 nM, over 10000 nM and 98 nM.
The like results for `Cc1ccc(C(=O)N[C@@H](CO)[C@@H](O)c2ccccc2)cc1CNc1cncc(-c2ccccn2)c1` [Example 155, 3-{[([2,3′-bipyridin]-5′-yl)amino]methyl}-N-[(1S,2S)-1,3-dihydroxy-1-phenylpropan-2-yl]-4-methylbenzamide] were, in that order, 36 nM, 69 nM, 10000 nM and 160 nM.
Turning to `Cc1ccc(C(=O)N[C@@H](CO)[C@@H](O)c2ccccc2)cc1CNc1cncc(-c2ccccc2)n1` [Example 156, N-[(1S,2S)-1,3-dihydroxy-1-phenylpropan-2-yl]-4-methyl-3-{[(6-phenylpyrazin-2-yl)amino]methyl}benzamide], the IC50 at PDGFR-β was 25 nM; in assay [1], 22 nM; in assay [2], over 10000 nM; in assay [3], 79 nM.
The like results for `COc1ccc(-c2cncc(NCc3cccc(NC(=O)N[C@@H]4CCCC[C@@H]4O)c3)n2)cc1OC` [Example 158, N-[3-({[6-(3,4-dimethoxyphenyl)pyrazin-2-yl]amino}methyl)phenyl]-N′-[(1R,2S)-2-hydroxycyclohexyl]urea] were, in that order, 26 nM, 41 nM, 3000 nM and 22 nM.
In the case of `O=C(Nc1cccc(CNc2cncc(-c3ncccn3)c2)c1)N[C@@H]1CCCC[C@@H]1O` [Example 159, N-[(1R,2S)-2-hydroxycyclohexyl]-N′-[3-({[5-(pyrimidin-2-yl)pyridin-3-yl]amino}methyl)phenyl]urea], the IC50 stood at 26 nM at PDGFR-β, 1.7 nM in assay [1], 380 nM in assay [2] and 21 nM in assay [3].
On to `O=C(Nc1cc(CNc2cncc(-c3ncccn3)c2)ccc1F)N[C@@H]1CCCC[C@@H]1O` [Example 160, N-[2-fluoro-5-({[5-(pyrimidin-2-yl)pyridin-3-yl]amino}methyl)phenyl]-N′-[(1R,2S)-2-hydroxycyclohexyl]urea], for which the IC50 at PDGFR-β was 46 nM; in assay [1] it was 5.9 nM; in assay [2] it was 1200 nM; in assay [3] it was 44 nM.
For `O=C(Nc1ccc(F)c(CNc2cncc(-c3ncccn3)c2)c1)N[C@@H]1CCCC[C@@H]1O` [Example 161, N-[4-fluoro-3-({[5-(pyrimidin-2-yl)pyridin-3-yl]amino}methyl)phenyl]-N′-[(1R,2S)-2-hydroxycyclohexyl]urea] the same measures were 16 nM, 4.8 nM, over 10000 nM and 110 nM.
The like results for `Cc1ccc(NC(=O)N[C@@H]2CCCC[C@@H]2O)cc1CNc1cncc(-c2ncccn2)c1` [Example 162, N-[(1R,2S)-2-hydroxycyclohexyl]-N′-[4-methyl-3-({[5-(pyrimidin-2-yl)pyridin-3-yl]amino}methyl)phenyl]urea] were, in that order, 2.6 nM, 1.1 nM, 270 nM and 36 nM.
Consider `Cc1ccc(C(=O)N[C@H]2CCCC[C@@H]2O)cc1C(C)Nc1cncc(-c2ccccc2)n1` (stereo partly drawn) [Example 164, N-[(1S,2S)-2-hydroxycyclohexyl]-4-methyl-3-{1-[(6-phenylpyrazin-2-yl)amino]ethyl}benzamide], for which the IC50 at PDGFR-β came out at 110 nM; in assay [1], 180 nM; in assay [2] it was 1400 nM; in assay [3] it was 110 nM.
